Measurements taken from article PMC3128364 (Journal of Clinical Biochemistry and Nutrition, 2011).

Target: T1, intestinal maltase
T1 construct: gene Mgam; native, crude extract of rat intestinal acetone powder (Sigma)
Experiment: glucose release from maltose, glucose oxidase kit
Assay type: biochemical, Rattus norvegicus
Details: 37 mM maltose (70 µL), 0.1 M phosphate pH 6.9, 37 °C, 30 min

IC50 [µM]	Structure (SMILES)
2320	C[C@@H]1O[C@@H](OC[C@H]2O[C@@H](Oc3cc4c(O)cc(O)cc4[o+]c3-c3ccc(O)c(O)c3)[C@H](O)[C@@H](O)[C@@H]2O)[C@H](O)[C@H](O)[C@H]1O [C3R, cyanidin-3-rutinoside]
2.7 ± 0.1	C[C@H]1O[C@H](O[C@H]2[C@H](O)[C@@H](O)[C@@H](O[C@H]3[C@H](O)[C@@H](O)C(O)O[C@@H]3CO)O[C@@H]2CO)[C@H](O)[C@@H](O)[C@@H]1N[C@H]1C=C(CO)[C@@H](O)[C@H](O)[C@H]1O (some centres unmarked) [Acarbose]
